Measured values taken from ChEMBL document CHEMBL5154904, “Discovery and Structural Basis of the Selectivity of Potent Cyclic Peptide Inhibitors of MAGE-A4” (J Med Chem, 2022).
Positions of bridges follow the written chain, without caps; N, C: chain ends. Residues, ends and D or L forms follow the SMILES beside them.

System: T1, Melanoma-associated antigen 4 (Homo sapiens), P43358 [E225A]
T1 sequence (whole entry): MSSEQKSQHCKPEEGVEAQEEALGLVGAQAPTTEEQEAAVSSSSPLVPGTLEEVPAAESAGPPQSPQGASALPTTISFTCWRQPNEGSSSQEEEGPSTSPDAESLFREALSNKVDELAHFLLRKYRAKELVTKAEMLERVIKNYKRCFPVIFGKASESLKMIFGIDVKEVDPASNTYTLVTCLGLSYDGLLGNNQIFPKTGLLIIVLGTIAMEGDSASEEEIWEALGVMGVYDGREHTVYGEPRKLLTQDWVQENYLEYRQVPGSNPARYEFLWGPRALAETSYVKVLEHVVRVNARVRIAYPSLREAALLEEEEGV
Assay: Binding affinity to recombinant N-terminal His-tagged MAGEA4-MH domain E225A mutant (unknown origin) expressed in Escherichia coli BL21-(DE3) assessed as increase in thermal stability by SYPRO orange dye based differential scanning fluorimetry
Details: dose <= 10.0 µM

- Tm: < 3.5 °C
SMILES: CC[C@H](C)[C@@H]1NC(=O)[C@H](Cc2ccc(O)cc2)NC(=O)CSC[C@@H](C(N)=O)NC(=O)[C@H](CC(N)=O)NC(=O)[C@H](Cc2cnc[nH]2)NC(=O)[C@H](Cc2ccc(O)cc2)NC(=O)[C@H](CC(=O)O)NC(=O)[C@H](Cc2ccc(O)cc2)NC(=O)[C@H](CC(C)C)NC(=O)[C@H](CCCNC(=N)N)NC1=O ({CH2CO}-YIRLYDYHNC-NH2; thioether N-10)
